Experimental data reported in PubChem BioAssay AID1963850 (Molecular Pharmacology Branch, DTP, NCI, 2024).

Test system: 192522-019-R-J2-PDC complex tumor spheroid viability
Assay: Anticancer human tumor 192522-019-R-J2-PDC patient-derived colon adenocarcinoma cell line growth inhibition [POLQ]
Details: for IC50: curve of first compound; for viability, T/C: stronger effect = lower value
Method: Multicellular complex tumor spheroid response to Polymerase (POL) inhibitors (novobiocin, ART-558, RP6685) in combination with a variety of drugs and investigational agents in selected tumor cell lines
The POL inhibitors (novobiocin, ART-558, and RP6685) were evaluated both individually and in combination with standard of care and investigational anticancer small molecules within a complex spheroid model of solid tumors. . Complex spheroids include a stromal component modeled by human endothelial cells (HUVEC) and fibroblasts modeled by human mesenchymal stem cells (MSCs). The concentration ranges selected for each drug and investigational agent were based upon clinically achievable concentrations if the clinical Cmax of the agent was known.
Compounds. The drugs and investigational agents: novobiocin (NSC847541), ART-558 (NSC835418), RP-6685 (NSC848927), peposertib (NSC802822), ceralasertib (NSC780249), elimusertib (NSC800525), camonsertib (NSC841442), AZD-1390 (NSC803789), olaparib (NSC753686), talazoparib (NSC767125), rucaparib (NSC756644), sotorasib (NSC818433), MRTX-1133 (NSC836407), SN-38 (NSC673596), topotecan (NSC609699), epotoside (NSC141540), doxorubicin (NSC123127), gemcitabine (NSC613327), 5-fluorouracil (NSC19893), paclitaxel (NSC125973), vemurafenib (NSC761431), MSA-2 (NSC828583), SN-011 (NSC837082), adavosertib (NSC754352), prexasertib (NSC758257), carboplatin (NSC241240) and oxaliplatin (NSC266046), were obtained from the National Cancer Institute (NCI) Developmental Therapeutics Program Chemical Repository (21). The FDA-approved anticancer drug set is available from the Developmental Therapeutics Program at https://dtp.cancer.gov/organization/dscb/obtaining/. […] The stock solutions were prepared in dimethyl sulfoxide (DMSO, Sigma-Aldrich, St. Louis, MO, cat. D2650), except for the platinum compounds which were prepared in saline (Quality Biological, Gaithersburg, MD, cat. 114-055-101), at 800-fold the tested concentration and stored at -70 degrees C prior to their use. All drugs and investigational agents were tested over a range starting from a high concentration at or near the clinical Cmax and decreasing in half-log increments. If the clinical Cmax for an agent had not been determined, the highest concentration tested was 10 microM, except for SN-38, which was tested at a high concentration of 1 microM.
Cell Culture. All cells were maintained in an incubator at 37 degrees C and 5% CO2 with 95% humidity. The PDC lines were cultured according to standard operating procedures established by the NCI PDMR (https://pdmr.cancer.gov). Table 3 of the manuscript, lists the cell lines along with the number of the three cell types plated to form the mct-spheroids and media for tumor cell growth. After thawing, all PDC lines, except 997537-175-T-J1-PDC and 415267-285-R-J2-PDC, were cultured in Matrigel-coated flasks prepared with a working solution of 1X Ham's F-12 nutrient mix, without supplementation (Thermo Fisher Scientific, cat. 11765054), 100 U/mL penicillin-streptomycin (Thermo Fisher Scientific, cat. 15140122), and 2.5% Matrigel (Corning Inc., Corning, NY, cat. 354248) for the first three passages. The two PDC lines 997537-175-T-J1-PDC and 415267-285-R-J2-PDC were cultured on uncoated flasks. The 857933-349-R-J2-PDC line was cultured in 6C/Colon 1B media containing advanced DMEM/F-12 (Thermo Fisher Scientific, cat. 12634028), 10 mM HEPES (Thermo Fisher Scientific, cat. 15630080), 1X GlutaMAX supplement (Thermo Fisher Scientific, cat. 35050061), 0.1 mg/mL primocin (InvivoGen, San Diego, CA, cat. ant-pm-2), 10% defined fetal bovine serum, heat inactivated (HyClone Laboratories Inc., Logan, UT, cat. SH30070.03HI), 50% L-WRN conditioned media (ATCC, cat. CRL-3276), 1.25 mM N-Acetyl-L-cysteine (Sigma-Aldrich, cat. A9165), 10 mM nicotinamide (Sigma-Aldrich, cat. N0636), 1X B-27 supplement (Thermo Fisher Scientific, cat. 17504044), 1X N-2 supplement (Thermo Fisher Scientific, cat. […]

[1] = second compound 0.0316 µM, first compound 0.0316 µM
[2] = second compound 0.0316 µM, first compound 0.1 µM
[3] = second compound 0.0316 µM, first compound 0.316 µM
[4] = second compound 0.0316 µM, first compound 1 µM
[5] = second compound 0.0316 µM, first compound 3.16 µM
[6] = second compound 0.0316 µM, first compound 10 µM
[7] = second compound 0.1 µM, first compound 0.0316 µM
[8] = second compound 0.1 µM, first compound 0.1 µM
[9] = second compound 0.1 µM, first compound 0.316 µM
[10] = second compound 0.1 µM, first compound 1 µM
[11] = second compound 0.1 µM, first compound 3.16 µM
[12] = second compound 0.1 µM, first compound 10 µM
[13] = second compound 0.316 µM, first compound 0.0316 µM
[14] = second compound 0.316 µM, first compound 0.1 µM
[15] = second compound 0.316 µM, first compound 0.316 µM
[16] = second compound 0.316 µM, first compound 1 µM
[17] = second compound 0.316 µM, first compound 3.16 µM
[18] = second compound 0.316 µM, first compound 10 µM
[19] = second compound 1 µM, first compound 0.0316 µM
[20] = second compound 1 µM, first compound 0.1 µM
[21] = second compound 1 µM, first compound 0.316 µM
[22] = second compound 1 µM, first compound 1 µM
[23] = second compound 1 µM, first compound 3.16 µM
[24] = second compound 1 µM, first compound 10 µM
[25] = second compound 3.16 µM, first compound 0.0316 µM
[26] = second compound 3.16 µM, first compound 0.1 µM
[27] = second compound 3.16 µM, first compound 0.316 µM
[28] = second compound 3.16 µM, first compound 1 µM
[29] = second compound 3.16 µM, first compound 3.16 µM
[30] = second compound 3.16 µM, first compound 10 µM
[31] = second compound 10 µM, first compound 0.0316 µM
[32] = second compound 10 µM, first compound 0.1 µM
[33] = second compound 10 µM, first compound 0.316 µM
[34] = second compound 10 µM, first compound 1 µM
[35] = second compound 10 µM, first compound 3.16 µM
[36] = second compound 10 µM, first compound 10 µM
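Also: spheroids exposed to drugs for seven days before reading.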
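For viability, T/C in this document: 100% = DMSO vehicle control viability in luminescence.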

C#Cc1c(F)ccc2cc(O)cc(-c3ncc4c(N5CC6CCC(C5)N6)nc(OCC56CCCN5CC(F)C6)nc4c3F)c12 (centres undefined) + COC1C(OC(N)=O)C(O)C(Oc2ccc3c(O)c(NC(=O)c4ccc(O)c(CC=C(C)C)c4)c(=O)oc3c2C)OC1(C)C
IC50 (second compound 0.0316 µM): > 10000 nM | IC50 (second compound 0.1 µM): > 10000 nM | IC50 (second compound 0.316 µM): > 10000 nM | IC50 (second compound 1 µM): > 10000 nM | IC50 (second compound 3.16 µM): > 10000 nM | IC50 (second compound 10 µM): > 10000 nM | viability, T/C [1]: 97.7% | viability, T/C [2]: 78.8% | viability, T/C [3]: 81.6% | viability, T/C [4]: 76.1% | viability, T/C [5]: 73.4% | viability, T/C [6]: 68% | viability, T/C [7]: 98% | viability, T/C [8]: 83.9% | viability, T/C [9]: 86.5% | viability, T/C [10]: 73.3% | viability, T/C [11]: 70.2% | viability, T/C [12]: 72.1% | viability, T/C [13]: 98.7% | viability, T/C [14]: 88.4% | viability, T/C [15]: 82.9% | viability, T/C [16]: 77.5% | viability, T/C [17]: 78.9% | viability, T/C [18]: 72.1% | viability, T/C [19]: 94.8% | viability, T/C [20]: 86.7% | viability, T/C [21]: 80.1% | viability, T/C [22]: 76.8% | viability, T/C [23]: 73.2% | viability, T/C [24]: 70.7% | viability, T/C [25]: 95.1% | viability, T/C [26]: 90.2% | viability, T/C [27]: 82.3% | viability, T/C [28]: 73.2% | viability, T/C [29]: 75.9% | viability, T/C [30]: 71.7% | viability, T/C [31]: 95.2% | viability, T/C [32]: 84.1% | viability, T/C [33]: 79.6% | viability, T/C [34]: 78.7% | viability, T/C [35]: 74% | viability, T/C [36]: 62.8%

CC1COCCN1c1cc(C2(O)CC3CCC(C2)O3)c2cnn(-c3ccn[nH]3)c2n1 (centres undefined) + COC1C(OC(N)=O)C(O)C(Oc2ccc3c(O)c(NC(=O)c4ccc(O)c(CC=C(C)C)c4)c(=O)oc3c2C)OC1(C)C
IC50 (second compound 0.0316 µM): 227 nM | IC50 (second compound 0.1 µM): 242 nM | IC50 (second compound 0.316 µM): 314 nM | IC50 (second compound 1 µM): 254 nM | IC50 (second compound 3.16 µM): 239 nM | IC50 (second compound 10 µM): 247 nM | viability, T/C [1]: 95.5% | viability, T/C [2]: 70.3% | viability, T/C [3]: 41.9% | viability, T/C [4]: 33.7% | viability, T/C [5]: 42.8% | viability, T/C [6]: 46.5% | viability, T/C [7]: 102% | viability, T/C [8]: 81.8% | viability, T/C [9]: 39.8% | viability, T/C [10]: 33% | viability, T/C [11]: 41.6% | viability, T/C [12]: 47% | viability, T/C [13]: 101% | viability, T/C [14]: 83.4% | viability, T/C [15]: 50.8% | viability, T/C [16]: 36.9% | viability, T/C [17]: 40.7% | viability, T/C [18]: 48.5% | viability, T/C [19]: 96.3% | viability, T/C [20]: 73.5% | viability, T/C [21]: 45% | viability, T/C [22]: 33.5% | viability, T/C [23]: 41.7% | viability, T/C [24]: 53.1% | viability, T/C [25]: 94% | viability, T/C [26]: 77.4% | viability, T/C [27]: 39.8% | viability, T/C [28]: 34.4% | viability, T/C [29]: 41.3% | viability, T/C [30]: 49.1% | viability, T/C [31]: 93.1% | viability, T/C [32]: 70.8% | viability, T/C [33]: 42.1% | viability, T/C [34]: 38.5% | viability, T/C [35]: 45.9% | viability, T/C [36]: 51%
